Source: patent US8455475B2 (Gruenenthal GmbH, priority 2009, dated 2013)

How the values were obtained:
[1] = target: T1, human B1R (bradykinin receptor 1) (Homo sapiens, UniProt P46663); assay: FLIPR Ca2+ assay (Fluo-4) on CHO K1 cells stably transfected with the human B1R gene (hB1R cells): % inhibition at 10 μM / IC50, agonist Lys-Des-Arg9-bradykinin; type: cell-based; details: CHO-K1, human B1R
T1 construct: expressed in transfected cells; host or cells: CHO K1 cells
T1 sequence (P46663 1-353): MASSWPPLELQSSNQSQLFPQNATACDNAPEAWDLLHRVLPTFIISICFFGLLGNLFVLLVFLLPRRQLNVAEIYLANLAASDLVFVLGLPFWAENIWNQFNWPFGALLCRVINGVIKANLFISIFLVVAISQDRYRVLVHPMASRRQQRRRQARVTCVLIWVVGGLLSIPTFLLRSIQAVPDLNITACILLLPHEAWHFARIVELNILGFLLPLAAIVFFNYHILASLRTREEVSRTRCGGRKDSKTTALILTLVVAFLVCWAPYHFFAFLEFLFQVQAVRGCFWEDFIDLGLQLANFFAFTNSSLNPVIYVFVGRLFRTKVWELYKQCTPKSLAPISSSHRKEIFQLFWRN
In short: (§1)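 Using a two-addition FLIPR protocol, compound (10 μM for % values; concentration series for IC50) was preincubated 10–20 min with Fluo-4-loaded B1R-expressing CHO K1 cells before EC80 agonist challenge. Suppression of Ca2+ inflow, read as peak fluorescence, is expressed relative to maximum achievable inhibition; duplicate/triplicate, ≥2 independent experiments.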

[2] = target: T2, rat B1R (bradykinin receptor 1) (Rattus norvegicus, UniProt P97583); assay: FLIPR Ca2+ assay (Fluo-4) on CHO K1 cells stably transfected with the B1R gene of the rat (rB1R cells): % inhibition at 10 μM / IC50, agonist Des-Arg9-bradykinin; type: cell-based; details: CHO-K1, rat B1R
T2 construct: expressed in transfected cells; host or cells: CHO K1 cells
T2 sequence (P97583 1-337): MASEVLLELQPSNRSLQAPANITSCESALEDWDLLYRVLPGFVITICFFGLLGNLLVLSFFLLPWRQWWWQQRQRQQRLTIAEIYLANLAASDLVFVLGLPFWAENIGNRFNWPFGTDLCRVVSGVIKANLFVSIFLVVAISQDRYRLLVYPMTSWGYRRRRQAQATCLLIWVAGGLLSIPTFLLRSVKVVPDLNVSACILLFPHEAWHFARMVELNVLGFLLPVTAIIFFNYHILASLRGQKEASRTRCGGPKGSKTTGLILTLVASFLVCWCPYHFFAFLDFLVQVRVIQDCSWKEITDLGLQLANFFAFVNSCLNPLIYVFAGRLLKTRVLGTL
In short: as §1

O=C(c1ccc2c(c1)[C@H](NS(=O)(=O)c1ccccc1F)CC2)N1CCC2(CCN(c3ccncc3)CC2)C1 [Example H-116, 2-Fluoro-N-[(1R)-6-(8-pyridin-4-yl-3,8-diazaspiro[4.5]decane-3-carbonyl)-2,3-dihydro-1H-inden-1-yl]-benzenesulfonic acid amide]
inhibition at 10 µM [1]: 100% | inhibition at 10 µM [2]: 101%

Cc1ccccc1S(=O)(=O)N[C@@H]1CCc2ccc(C(=O)N3CCC4(CCN(c5ccncc5)CC4)C3)cc21 [Example H-117, 2-Methyl-N-[(1R)-6-(8-pyridin-4-yl-3,8-diazaspiro[4.5]decane-3-carbonyl)-2,3-dihydro-1H-inden-1-yl]-benzensulfonic acid amide]
inhibition at 10 µM [1]: 100% | inhibition at 10 µM [2]: 101%

O=C(c1ccc2c(c1)[C@H](NS(=O)(=O)c1ccccc1C(F)(F)F)CC2)N1CCC2(CCN(c3ccncc3)CC2)C1 [Example H-118, N-[(1R)-6-(8-Pyridin-4-yl-3,8-diazaspiro[4.5]decane-3-carbonyl)-2,3-dihydro-1H-inden-1-yl]-2-(trifluoromethyl)-benzenesulfonic acid amide]
inhibition at 10 µM [1]: 100% | inhibition at 10 µM [2]: 101%

O=C(c1ccc2c(c1)[C@H](NS(=O)(=O)c1c(Cl)cccc1Cl)CC2)N1CCC2(CCN(c3ccncc3)CC2)C1 [Example H-119, 2,6-Dichloro-N-[(1R)-6-(8-pyridin-4-yl-3,8-diazaspiro[4.5]decane-3-carbonyl)-2,3-dihydro-1H-inden-1-yl]-benzenesulfonic acid amide]
inhibition at 10 µM [1]: 100% | inhibition at 10 µM [2]: 100%

O=C(N[C@@H]1CCc2ccc(C(=O)N3CCC4(CCC(OCCn5ccnc5)CC4)CC3)cc21)c1ccccc1Cl [Example H-120, 2-Chloro-N-[6-[9-[2-(1H-imidazol-1-yl)-ethoxy]-3-azaspiro[5.5]undecane-3-carbonyl]-2,3-dihydro-1H-inden-1-yl]-benzamide]
inhibition at 10 µM [1]: 65% | inhibition at 10 µM [2]: 104%

O=C(NC1CCc2ccc(C(=O)N3CCC4(CCC(O)(c5ccncc5)CC4)C3)cc21)c1ccccc1Cl (stereo not shown) [Example H-128, 2-Chloro-N-[6-(8-hydroxy-8-pyridin-4-yl-3-azaspiro[4.5]decane-3-carbonyl)-2,3-dihydro-1H-inden-1-yl]-benzamide]
inhibition at 10 µM [1]: 38% | inhibition at 10 µM [2]: 36%

O=C(NC1CCc2ccc(C(=O)N3CCC4(CCN(c5cc[n+]([O-])cc5)CC4)C3)cc21)c1ccccc1Cl (stereo not shown) [Example H-129, 2-Chloro-N-[6-[8-(1-oxido-pyridin-1-ium-4-yl)-3,8-diazaspiro[4.5]decane-3-carbonyl]-2,3-dihydro-1H-inden-1-yl]-benzamide]
inhibition at 10 µM [1]: 100% | inhibition at 10 µM [2]: 102%

O=C(NC1CCc2ccc(C(=O)N3CCC4(CCN(c5ncc(C(F)(F)F)cn5)CC4)C3)cc21)c1ccccc1Cl (stereo not shown) [Example H-130, 2-Chloro-N-[6-[8-[5-(trifluoromethyl)-pyrimidin-2-yl]-3,8-diazaspiro[4.5]decane-3-carobnyl]-2,3-dihydro-1H-inden-1-yl]-benzamide]
inhibition at 10 µM [1]: 94% | inhibition at 10 µM [2]: 99%

O=C(NC1CCc2ccc(C(=O)N3CCC4(CCC(n5ccnc5)CC4)CC3)cc21)c1ccccc1Cl (stereo not shown) [Example H-131, 2-Chloro-N-[6-[9-(1H-imidazol-1-yl)-3-azaspiro[5.5]undecane-3-carbonyl]-2,3-dihydro-1H-inden-1-yl]-benzamide]
inhibition at 10 µM [1]: 74% | inhibition at 10 µM [2]: 102%

CC1(C)CC(NC(=O)c2ccccc2Cl)c2cc(C(=O)N3CCC4(CCN(c5ccncc5)CC4)C3)ccc21 (stereo not shown) [Example H-132, 2-Chloro-N-[3,3-dimethyl-6-(8-pyridin-4-yl-3,8-diazaspiro[4.5]decane-3-carbonyl)-1,2-dihydro-inden-1-yl]-benzamide]
inhibition at 10 µM [1]: 100% | inhibition at 10 µM [2]: 102%

O=C(NC1CCc2ccc(C(=O)N3CCC4(CCC(c5ccncc5)CC4)C3)cc21)c1ccccc1Cl (stereo not shown) [Example H-133, 2-Chloro-N-[6-(8-pyridin-4-yl-3-azaspiro[4.5]decane-3-carbonyl)-2,3-dihydro-1H-inden-1-yl]-benzamide]
inhibition at 10 µM [1]: 65% | inhibition at 10 µM [2]: 100%

Cc1ccc2n1C(=O)N([C@@H]1CCc3ccc(C(=O)N4CCC5(CCN(c6ccncc6)CC5)C4)cc31)C2 [Example H-134, 5-Methyl-2-[(1R)-6-(8-pyridin-4-yl-3,8-diazaspiro[4.5]decane-3-carbonyl)-2,3-dihydro-1H-inden-1-yl]-1,2-dihydro-pyrrolo[2.1-e]imidazol-3-one]
inhibition at 10 µM [1]: 99% | inhibition at 10 µM [2]: 103%

O=C(N[C@@H]1CCc2ccc(C(=O)N3CCC4(CCC(c5cccnc5)CC4)C3)cc21)c1ccccc1Cl (stereo partly drawn) [Example H-135, 2-Chloro-N-[(1R)-6-(8-pyridin-3-yl-3-azaspiro[4.5]decane-3-carbonyl)-2,3-dihydro-1H-inden-1-yl]-benzamide]
inhibition at 10 µM [1]: 80% | inhibition at 10 µM [2]: 101%

CN([C@@H]1CCc2ccc(C(=O)N3CCC4(CCN(c5ccncc5)CC4)C3)cc21)S(=O)(=O)c1ccccc1Cl [Example H-136, 2-Chloro-N-methyl-N-[(1R)-6-(8-pyridin-4-yl-3,8-diazaspiro[4.5]decane-3-carbonyl)-2,3-dihydro-1H-inden-1-yl]-benzenesulfonic acid amide]
inhibition at 10 µM [1]: 99% | inhibition at 10 µM [2]: 101%

O=C(c1ccc2c(c1)[C@H](N(CC(F)(F)F)C(=O)c1ccccc1Cl)CC2)N1CCC2(CCN(c3ccncc3)CC2)C1 [Example H-137, 2-Chloro-N-[(1R)-6-(8-pyridin-4-yl-3,8-diazaspiro[4.5]decane-3-carbonyl)-2,3-dihydro-1H-inden-1-yl]-N-(2,2,2-trifluoro-ethyl)-benzamide]
inhibition at 10 µM [1]: 99% | inhibition at 10 µM [2]: 103%

O=C(NC1CCc2ccc(C(=O)N3CCCC4(CC3)CCN(c3ccncc3)CC4)cc21)c1ccccc1Cl (stereo not shown) [Example H-138, 2-Chloro-N-[6-(3-pyridin-4-yl-3,10-diazaspiro[5.6]dodecane-10-carbonyl)-2,3-dihydro-1H-inden-1-yl]-benzamide]
inhibition at 10 µM [1]: 100% | inhibition at 10 µM [2]: 102%

COc1ccc(N2CCC3(CCN(C(=O)c4ccc5c(c4)[C@H](NC(=O)c4ccccc4Cl)CC5)C3)CC2)cc1 [Example H-139, 2-Chloro-N-[(1R)-6-[8-(4-methoxyphenyl)-3,8-diazaspiro[4.5]decane-3-carbonyl]-2,3-dihydro-1H-inden-1-yl]-benzamide]
inhibition at 10 µM [1]: 31% | inhibition at 10 µM [2]: 98%

N#Cc1ccc(N2CCC3(CCN(C(=O)c4ccc5c(c4)[C@H](NC(=O)c4ccccc4Cl)CC5)C3)CC2)cc1 [Example H-140, 2-Chloro-N-[(1R)-6-[8-(4-cyano-phenyl)-3,8-diazaspiro[4.5]decane-3-carbonyl]-2,3-dihydro-1H-inden-1-yl]-benzamide]
inhibition at 10 µM [1]: 70% | inhibition at 10 µM [2]: 100%

O=C(N[C@@H]1CCc2ccc(C(=O)N3CCC4(CCN(c5ccncc5)CC4)C3)cc21)c1cc(F)ccc1Cl [Example H-141, 2-Chloro-5-fluoro-N-[(1R)-6-(8-pyridin-4-yl-3,8-diazaspiro[4.5]decane-3-carbonyl)-2,3-dihydro-1H-inden-1-yl]-benzamide]
inhibition at 10 µM [1]: 99% | inhibition at 10 µM [2]: 101%

O=C(c1ccc2c(c1)[C@H](NS(=O)(=O)c1cc(Cl)ccc1Cl)CC2)N1CCC2(CCN(c3ccncc3)CC2)C1 [Example H-142, 2,5-Dichloro-N-[(1R)-6-(8-pyridin-4-yl-3,8-diazaspiro[4.5]decane-3-carbonyl)-2,3-dihydro-1H-inden-1-yl]-benzenesulfonic acid amide]
inhibition at 10 µM [1]: 98% | inhibition at 10 µM [2]: 103%

CC(C)CC(=O)N[C@@H]1CCc2ccc(C(=O)N3CCC4(CCN(c5ccncc5)CC4)C3)cc21 [Example H-143, 3-Methyl-N-[(1R)-6-(8-pyridin-4-yl-3,8-diazaspiro[4.5]decane-3-carbonyl)-2,3-dihydro-1H-inden-1-yl]-butyramide]
inhibition at 10 µM [1]: 100% | inhibition at 10 µM [2]: 105%

COc1ccc(S(=O)(=O)N[C@@H]2CCc3ccc(C(=O)N4CCC5(CCN(c6ccncc6)CC5)C4)cc32)c(C(F)(F)F)c1 [Example H-144, 4-Methoxy-N-[(1R)-6-(8-pyridin-4-yl-3,8-diazaspiro[4.5]decane-3-carbonyl)-2,3-dihydro-1H-inden-1-yl]-2-(trifluoromethyl)-benzenesulfonic acid amide]
inhibition at 10 µM [1]: 99% | inhibition at 10 µM [2]: 104%

CC(C(=O)N[C@@H]1CCc2ccc(C(=O)N3CCC4(CCN(c5ccncc5)CC4)C3)cc21)c1ccccc1Cl (stereo partly drawn) [Example H-145, 2-(2-Chlorophenyl)-N-[(1R)-6-(8-pyridin-4-yl-3,8-diazaspiro[4.5]decane-3-carbonyl)-2,3-dihydro-H-inden-1-yl]-propionamide]
inhibition at 10 µM [1]: 100% | inhibition at 10 µM [2]: 101%
